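Abbreviation: GI50, concentration required for 50% inhibition of growth. TGI: concentration producing complete growth inhibition.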
What was measured:
Assay in all cases: growth of human tumour cells (NCI), 384-well format
NCI-H460 NSCLC = tested on: NCI-H460 NSCLC
SF-268 CNS = tested on: SF-268 CNS
SW-620 colon = tested on: SW-620 colon
SNB-75 CNS = tested on: SNB-75 CNS
NCI-H522 lung = tested on: NCI-H522 lung
MALME-3M melanoma = tested on: MALME-3M melanoma
MOLT-4 leukemia = tested on: MOLT-4 leukemia
HT29 colon = tested on: HT29 colon
OVCAR-5 ovarian = tested on: OVCAR-5 ovarian
HL-60(TB) leukemia = tested on: HL-60(TB) leukemia
RXF 393 renal = tested on: RXF 393 renal
HCT-15 colon = tested on: HCT-15 colon
SK-OV-3 ovarian = tested on: SK-OV-3 ovarian
786-0 renal = tested on: 786-0 renal
NCI-H226 lung = tested on: NCI-H226 lung
SK-MEL-28 melanoma = tested on: SK-MEL-28 melanoma
COLO 205 colon = tested on: COLO 205 colon
A549 NSCLC = tested on: A549 NSCLC
NCI-H23 lung = tested on: NCI-H23 lung
UACC-257 melanoma = tested on: UACC-257 melanoma
T-47D breast = tested on: T-47D breast
HS 578T breast = tested on: HS 578T breast
ACHN renal = tested on: ACHN renal
IGROV1 ovarian = tested on: IGROV1 ovarian
K-562 leukemia = tested on: K-562 leukemia
MDA-MB-468 breast = tested on: MDA-MB-468 breast
SK-MEL-5 melanoma = tested on: SK-MEL-5 melanoma
OVCAR-8 ovarian = tested on: OVCAR-8 ovarian
MDA-MB-435 melanoma = tested on: MDA-MB-435 melanoma
SR leukemia = tested on: SR leukemia
LOX IMVI melanoma = tested on: LOX IMVI melanoma
NCI-H322M lung = tested on: NCI-H322M lung
KM12 colon = tested on: KM12 colon
BT-549 breast = tested on: BT-549 breast
MCF7 breast = tested on: MCF7 breast
OVCAR-3 ovarian = tested on: OVCAR-3 ovarian
UO-31 renal = tested on: UO-31 renal
MDA-MB-231 breast = tested on: MDA-MB-231 breast
HCC-2998 colon = tested on: HCC-2998 colon
CCRF-CEM leukemia = tested on: CCRF-CEM leukemia
DU-145 prostate = tested on: DU-145 prostate
RPMI-8226 leukemia = tested on: RPMI-8226 leukemia
PC-3 prostate = tested on: PC-3 prostate
NCI/ADR-RES ovarian = tested on: NCI/ADR-RES ovarian
UACC-62 melanoma = tested on: UACC-62 melanoma
SNB-19 CNS = tested on: SNB-19 CNS
HOP-62 NSCLC = tested on: HOP-62 NSCLC
HOP-92 NSCLC = tested on: HOP-92 NSCLC
TK-10 renal = tested on: TK-10 renal
M14 melanoma = tested on: M14 melanoma
OVCAR-4 ovarian = tested on: OVCAR-4 ovarian
A498 renal = tested on: A498 renal
SN12C renal = tested on: SN12C renal
EKVX NSCLC = tested on: EKVX NSCLC
SF-539 CNS = tested on: SF-539 CNS
CAKI-1 renal = tested on: CAKI-1 renal
SF-295 CNS = tested on: SF-295 CNS

## Cc1nc(-c2cnc(NC(C)C)n(C)c2=O)ccc1Oc1ccnc(-c2cnn(C)c2)c1
NCI-H460 NSCLC
  GI50: 15.4 µM
  TGI: 37.4 µM
SF-268 CNS
  GI50: 19.8 µM
  TGI: 64.1 µM
SW-620 colon
  GI50: 5.53 µM
  TGI: 17.9 µM
SNB-75 CNS
  GI50: 10.9 µM
  TGI: 26.8 µM
NCI-H522 lung
  GI50: 4.45 µM
  TGI: 15.5 µM
MALME-3M melanoma
  GI50: 7.48 µM
  TGI: 36.5 µM
MOLT-4 leukemia
  GI50: 1.87 µM
  TGI: 3.56 µM
HT29 colon
  GI50: 7.73 µM
  TGI: 34.7 µM
OVCAR-5 ovarian
  GI50: 17.2 µM
  TGI: 34.9 µM
HL-60(TB) leukemia
  GI50: 2.63 µM
  TGI: 6.27 µM
RXF 393 renal
  GI50: 12.4 µM
  TGI: 34.2 µM
HCT-15 colon
  GI50: 4.68 µM
  TGI: 19.4 µM
SK-OV-3 ovarian
  GI50: 11.5 µM
  TGI: 25.5 µM
786-0 renal
  GI50: 18.3 µM
  TGI: 61.4 µM
NCI-H226 lung
  GI50: 19 µM
  TGI: 90.7 µM
SK-MEL-28 melanoma
  GI50: 14.5 µM
  TGI: 69.5 µM
COLO 205 colon
  GI50: 9.84 µM
  TGI: 22.8 µM
A549 NSCLC
  GI50: 23.3 µM
  TGI: > 100 µM
NCI-H23 lung
  GI50: 12.4 µM
  TGI: 36 µM
UACC-257 melanoma
  GI50: 17.2 µM
  TGI: 57.1 µM
T-47D breast
  GI50: 5.73 µM
  TGI: 28.7 µM
HS 578T breast
  GI50: 13.6 µM
  TGI: 29.2 µM
ACHN renal
  GI50: 27.2 µM
  TGI: > 100 µM
IGROV1 ovarian
  GI50: 13.7 µM
  TGI: 44.3 µM
K-562 leukemia
  GI50: 1.26 µM
  TGI: 2.68 µM
MDA-MB-468 breast
  GI50: 2.73 µM
  TGI: 6.33 µM
SK-MEL-5 melanoma
  GI50: 4.46 µM
  TGI: 16.2 µM
OVCAR-8 ovarian
  GI50: 14.6 µM
  TGI: 28.4 µM
MDA-MB-435 melanoma
  GI50: 2.39 µM
  TGI: 5.7 µM
SR leukemia
  GI50: 1.5 µM
  TGI: 2.99 µM
LOX IMVI melanoma
  GI50: 17.9 µM
  TGI: 71.6 µM
NCI-H322M lung
  GI50: 23.5 µM
  TGI: 73.4 µM
KM12 colon
  GI50: 4.67 µM
  TGI: 33.9 µM
BT-549 breast
  GI50: 14 µM
  TGI: 81.1 µM
MCF7 breast
  GI50: 9.45 µM
  TGI: > 100 µM
OVCAR-3 ovarian
  GI50: 8.64 µM
  TGI: 28 µM
UO-31 renal
  GI50: 97.3 µM
  TGI: > 100 µM
MDA-MB-231 breast
  GI50: 16.4 µM
  TGI: > 100 µM
HCC-2998 colon
  GI50: 14.2 µM
  TGI: 36.9 µM
CCRF-CEM leukemia
  GI50: 4.56 µM
  TGI: 14.9 µM
DU-145 prostate
  GI50: 30.1 µM
  TGI: > 100 µM
RPMI-8226 leukemia
  GI50: 4.9 µM
  TGI: 21.7 µM
PC-3 prostate
  GI50: 21 µM
  TGI: 60.3 µM
NCI/ADR-RES ovarian
  GI50: 5.77 µM
  TGI: 19.3 µM
UACC-62 melanoma
  GI50: 6.42 µM
  TGI: 24.6 µM
SNB-19 CNS
  GI50: 21.3 µM
  TGI: 68.6 µM
HOP-62 NSCLC
  GI50: 14.4 µM
  TGI: 39.6 µM
HOP-92 NSCLC
  GI50: 19.5 µM
  TGI: 68.6 µM
TK-10 renal
  GI50: 27.1 µM
  TGI: > 100 µM
M14 melanoma
  GI50: 7.99 µM
  TGI: 27.3 µM
OVCAR-4 ovarian
  GI50: 13.6 µM
  TGI: 50.8 µM
A498 renal
  GI50: 13.2 µM
  TGI: > 100 µM
SN12C renal
  GI50: 14.5 µM
  TGI: 28.3 µM
EKVX NSCLC
  GI50: 18.1 µM
  TGI: > 100 µM
SF-539 CNS
  GI50: 12.4 µM
  TGI: 25.2 µM
CAKI-1 renal
  GI50: 25.7 µM
  TGI: > 100 µM
SF-295 CNS
  GI50: 15.6 µM
  TGI: 62.7 µM
